The values below come from patent publication US7732429B2 (Trustees of Tufts College, priority 1994, dated 2010).

Test [1] deals with T1, efflux protein (Escherichia coli, UniProt P02980).
T1 sequence (P02980 1-401): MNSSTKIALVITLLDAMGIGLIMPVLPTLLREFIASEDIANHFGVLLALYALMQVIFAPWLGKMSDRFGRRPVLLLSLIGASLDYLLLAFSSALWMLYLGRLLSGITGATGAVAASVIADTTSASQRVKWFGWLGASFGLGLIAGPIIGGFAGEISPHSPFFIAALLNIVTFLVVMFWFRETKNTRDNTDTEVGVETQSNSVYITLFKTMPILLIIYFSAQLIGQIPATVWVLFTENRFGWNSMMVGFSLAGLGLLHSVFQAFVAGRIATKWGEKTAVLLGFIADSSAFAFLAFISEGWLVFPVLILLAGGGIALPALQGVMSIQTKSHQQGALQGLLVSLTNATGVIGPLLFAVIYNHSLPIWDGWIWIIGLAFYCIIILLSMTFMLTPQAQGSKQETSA
Put plainly: everted membrane vesicle assay, blocking activity of 13-S-derivatives. Type of test: biochemical. The settings on record: blocking activity against the efflux protein, everted membrane vesicle assay.

Test [2] concerns E. faecalis 211 (Tet M). Put plainly: MIC/MLC chart, analog with and without doxycycline. It counts as cell-based.
Test [3] has as its system E. coli DI-299 (Tet A). The test can be described thus: MIC/MLC chart, analog with and without doxycycline. It counts as cell-based. Set-up: key to growth/killing, Analog + Doxy / growth/killing, Doxy Control / growth/killing, Analog Control / growth in MIC/MLC chart: +=growth; 0=no growth (MIC); ↓=killing; ? =99.9% killing (MLC); □=no growth, but no microbiologic testing.

For test [4], the system named is S. aureus 4250 (Tet K). The test can be described thus: MIC/MLC chart, analog with and without doxycycline. It counts as cell-based.
Test [5] has as its system E. faecalis 158 (Tet L). The test can be described thus: MIC/MLC chart, analog with and without doxycycline. It counts as cell-based.
Where [6] appears, read: Analog Control: analog alone 1.56 μg/ml.
[7] abbreviates: Analog Control: analog alone .195 μg/ml.
[8] abbreviates: Analog Control: analog alone .39 μg/ml.
Setting [9] is: Analog Control: analog alone .78 μg/ml.
Setting [10] is: analog 1.56 μg/ml + doxycycline 1.55 μg/ml.
The mark [11] stands for this setting: analog 1.56 μg/ml + doxycycline 3.1 μg/ml.
Where [12] appears, read: analog 1.56 μg/ml + doxycycline 6.2 μg/ml.
The mark [13] stands for this setting: analog .195 μg/ml + doxycycline 1.56 μg/ml.
[14] abbreviates: analog .195 μg/ml + doxycycline 3.12 μg/ml.
[15] abbreviates: analog .195 μg/ml + doxycycline 6.25 μg/ml.
Setting [16] is: analog .195 μg/ml + doxycycline 12.5 μg/ml.
The mark [17] stands for this setting: analog .39 μg/ml + doxycycline 1.56 μg/ml.
[18] abbreviates: analog .39 μg/ml + doxycycline 3.12 μg/ml.
[19] abbreviates: analog .39 μg/ml + doxycycline 6.25 μg/ml.
Where [20] appears, read: analog .39 μg/ml + doxycycline 12.5 μg/ml.
The mark [21] stands for this setting: analog .78 μg/ml + doxycycline 1.56 μg/ml.
[22] abbreviates: analog .78 μg/ml + doxycycline 3.12 μg/ml.
The mark [23] stands for this setting: analog .78 μg/ml + doxycycline 6.23 μg/ml.
[24] abbreviates: Doxy Control: doxycycline alone 1.56 μg/ml.
Setting [25] is: Doxy Control: doxycycline alone 3.12 μg/ml.
Setting [26] is: Doxy Control: doxycycline alone 6.25 μg/ml.
[27] abbreviates: Doxy Control: doxycycline alone 12.5 μg/ml.

Consider `CCCCSCC1c2cccc(O)c2C(=O)C2=C(O)C3(O)C(=O)C(C(N)=O)=C(O)C(N(C)C)C3C(O)C21` (stereo not drawn) [Butyl], for which the Ki (usually the dissociation constant of the complex between target and ligand, obtained from inhibition or displacement) in test [1] is 0.5 µg/mL.
On to `CCCSCC1c2cccc(O)c2C(=O)C2=C(O)C3(O)C(=O)C(C(N)=O)=C(O)C(N(C)C)C3C(OC(=O)CC)C21` (stereo not drawn) [Cmpd 13-propyl-thio-5-proprionate], for which the “growth in MIC/MLC chart” value in test [2] (setting [6]), in test [2] (setting [7]), in test [2] (setting [8]), in test [2] (setting [9]), in test [2] (setting [10]) and in test [2] (setting [11]) was “+” in each case. Further, the “growth in MIC/MLC chart” value in test [2] (setting [12]), in test [2] (setting [13]), in test [2] (setting [14]), in test [2] (setting [15]), in test [2] (setting [16]) and in test [2] (setting [17]) was “+” each time. Moreover, the “growth in MIC/MLC chart” value in test [2] (setting [18]), in test [2] (setting [19]), in test [2] (setting [20]), in test [2] (setting [21]), in test [2] (setting [22]) and in test [2] (setting [23]) was “+” throughout. Further, the “growth in MIC/MLC chart” value in test [3] (setting [6]), in test [3] (Analog Control: analog alone 3.12 μg/ml), in test [3] (Analog Control: analog alone 6.25 μg/ml), in test [3] (Analog Control: analog alone 12.5 μg/ml), in test [3] (Analog Control: analog alone 25.0 μg/ml) and in test [3] (Analog Control: analog alone 50.00 μg/ml) was “+” throughout. In addition, the “growth in MIC/MLC chart” value in test [3] (setting [7]), in test [3] (setting [8]), in test [3] (setting [9]), in test [3] (setting [10]), in test [3] (setting [11]) and in test [3] (setting [12]) was “+” throughout. Also, the “growth in MIC/MLC chart” value in test [3] (analog 3.12 μg/ml + doxycycline 1.53 μg/ml), in test [3] (analog 3.12 μg/ml + doxycycline 3.05 μg/ml), in test [3] (analog 3.12 μg/ml + doxycycline 6.1 μg/ml), in test [3] (analog 6.25 μg/ml + doxycycline 3.0 μg/ml), in test [3] (analog 6.25 μg/ml + doxycycline 5.9 μg/ml) and in test [3] (analog 6.25 μg/ml + doxycycline […]) was “+” in each case. Also, the “growth in MIC/MLC chart” value in test [3] (analog 12.5 μg/ml + doxycycline 2.8 μg/ml), in test [3] (analog 12.5 μg/ml + doxycycline 5.5 μg/ml), in test [3] (analog 12.5 μg/ml + doxycycline […]), in test [3] (analog 25 μg/ml + doxycycline 2.4 μg/ml), in test [3] (analog 25 μg/ml + doxycycline 4.7 μg/ml) and in test [3] (analog 25 μg/ml + doxycycline […]) was “+” in each case. Further, the “growth in MIC/MLC chart” value in test [3] (analog 50 μg/ml + doxycycline 1.56 μg/ml), in test [3] (analog 50 μg/ml + doxycycline 3.12 μg/ml), in test [3] (analog 50 μg/ml + doxycycline .78 μg/ml), in test [3] (setting [13]), in test [3] (setting [14]) and in test [3] (setting [15]) was “+” each time. In addition, the “growth in MIC/MLC chart” value in test [3] (setting [16]), in test [3] (setting [17]), in test [3] (setting [18]), in test [3] (setting [19]), in test [3] (setting [20]) and in test [3] (setting [21]) was “+” throughout. For the same molecule, the “growth in MIC/MLC chart” value in test [3] (setting [22]), in test [3] (setting [23]), in test [3] (analog .78 μg/ml + doxycycline 12.4 μg/ml), in test [4] (setting [7]), in test [4] (setting [13]) and in test [5] (setting [7]) was “+” in each case. Also, the “growth in MIC/MLC chart” value in test [5] (setting [8]), in test [5] (setting [9]), in test [5] (setting [13]) and in test [5] (setting [14]) was “+” each time.
As to `CCCCCCCCCCSCC1c2cccc(O)c2C(=O)C2=C(O)C3(O)C(=O)C(C(N)=O)=C(O)C(N(C)C)C3C(O)C21` (stereo not drawn) [Decyl], the Ki in test [1] was found to be 8.0 µg/mL.
With `C[C@H]1c2cccc(O)c2C(O)=C2C(=O)[C@]3(O)C(O)=C(C(N)=O)C(=O)[C@@H](N(C)C)[C@@H]3[C@@H](O)[C@@H]21` [Doxy, Doxycycline, reference compound], the “growth in MIC/MLC chart” value in test [2] (setting [24]), in test [2] (setting [25]), in test [2] (setting [26]), in test [2] (setting [27]), in test [3] (setting [24]) and in test [3] (setting [25]) was “+” each time. The “growth in MIC/MLC chart” value in test [3] (setting [26]), in test [3] (setting [27]), in test [3] (Doxy Control: doxycycline alone 25.0 μg/ml), in test [4] (setting [24]), in test [4] (setting [25]) and in test [4] (setting [26]) was “+” in each case. Moreover, the “growth in MIC/MLC chart” value in test [4] (setting [27]), in test [5] (setting [24]), in test [5] (setting [25]) and in test [5] (setting [26]) was “+” in each case. Also, the “growth/killing, Doxy Control” value in test [2] (Doxy alone 1.56 μg/ml), in test [2] (Doxy alone 3.12 μg/ml), in test [2] (Doxy alone 6.25 μg/ml), in test [2] (Doxy alone 12.5 μg/ml), in test [3] (Doxy alone 1.56 μg/ml) and in test [3] (Doxy alone 3.12 μg/ml) was “+” each time. Moreover, the “growth/killing, Doxy Control” value in test [3] (Doxy alone 6.25 μg/ml), in test [3] (Doxy alone 12.5 μg/ml), in test [3] (Doxy alone 25.0 μg/ml), in test [4] (Doxy alone 1.56 μg/ml), in test [4] (Doxy alone 3.12 μg/ml) and in test [4] (Doxy alone 6.25 μg/ml) was “+” in each case. Besides, the “growth/killing, Doxy Control” value in test [4] (Doxy alone 12.5 μg/ml), in test [5] (Doxy alone 1.56 μg/ml), in test [5] (Doxy alone 3.12 μg/ml) and in test [5] (Doxy alone 6.25 μg/ml) was “+” in each case.
As to `CCCCCCSCC1c2cccc(O)c2C(=O)C2=C(O)C3(O)C(=O)C(C(N)=O)=C(O)C(N(C)C)C3C(O)C21` (stereo not drawn) [Hexyl], the Ki in test [1] is 5.53 µM.
